Assay results taken from US20220089602A1, “COMPOUNDS THAT INDUCE FERROPTIC CELL DEATH” (The Board of Trustees of the University of Illinois, priority 2019, published 2022).

Experiments:
[1] = test system: ES-2 cell line; test: 72 hr cell viability assay (Alamar Blue), dose response IC50; assay type: cell-based; conditions: Homo sapiens; 72 hr, ES-2 cell line, Alamar Blue fluorescence, mean ± s.e.m., n ≥ 3
Description: 40 μL of media was added to each well of a 384-well tissue culture-treated plate. 3×100 nL of compound in DMSO was then pin-transferred from compound storage plates (2 mM stocks) into media-containing wells using the Platemate Plus at the UIUC High Throughput Screening Facility. A 100,000 cells/mL suspension of ES-2 cells was prepared, and 10 μL was added to each well for a final concentration of 1000 cells/well. Doxorubicin (100 μM final) was used as a positive control. Plates were sealed with gas-permeable seals and incubated at 37° C. for 72 h. After incubation, 5 μL of Alamar blue (440 μM resazurin in sterile PBS) was added and allowed to incubate for 3-4 h, until visible color change occurred. Fluorescence was measured in a Molecular Devices SpectraMax 3 (excitation=555 nm, emission=585 nm, emission cutoff=570 nm).
To a 384-well plate, 40 μL of 1.25× compound dilution or 1.25% DMSO-containing media was added (final volume of 1% DMSO). Concentrations of compounds tested were 100 μM to 100 nM. On each plate at least 3 technical replicates per compound were performed. Next, 10 μL of a 100,000 cells/mL suspension was added to each well, yielding a final concentration of 1,000 cells/well. To three wells in column 2 was added 1 μL of 10 mM doxorubicin (final concentration of 200 μM) as positive control of cell death. Plates were sealed with gas-permeable seals and incubated at 37° C. for 72 h. At that time, 5 μL of Alamar blue (440 μM resazurin in sterile PBS) was added and plates were incubated for 3-4 hours. Fluorescence was read on a Molecular Devices SpectraMax 3 (excitation=555 nm, emission=585 nm, emission cutoff=570 nm). Wells were normalized to the average of untreated wells (0% cell death). The data were plotted as compound concentration versus percent dead cells and fitted to a logistic-dose response curve using OriginPro 2015 (OriginLab, Northampton, Mass.). The data were generated in triplicate, and IC50 values are reported as the average of three separate experiments along with standard error of the mean.

[2] = target: T1, TXNRD1 (Homo sapiens, UniProt Q16881); test: Biotin-streptavidin pulldown with P29, competition by ferroptocide, LC/LC-MS/MS; assay type: binding; conditions: DMSO/ferroptocide spectral count ratio of P29-labeled enriched proteins
T1 construct: HCT 116 cells were pre-treated with ferroptocide or DMSO, followed by treatment with P29; endogenous in cells; host or cells: HCT 116 (and ES-2) cells
T1 sequence (Q16881 151-649 limits assumed): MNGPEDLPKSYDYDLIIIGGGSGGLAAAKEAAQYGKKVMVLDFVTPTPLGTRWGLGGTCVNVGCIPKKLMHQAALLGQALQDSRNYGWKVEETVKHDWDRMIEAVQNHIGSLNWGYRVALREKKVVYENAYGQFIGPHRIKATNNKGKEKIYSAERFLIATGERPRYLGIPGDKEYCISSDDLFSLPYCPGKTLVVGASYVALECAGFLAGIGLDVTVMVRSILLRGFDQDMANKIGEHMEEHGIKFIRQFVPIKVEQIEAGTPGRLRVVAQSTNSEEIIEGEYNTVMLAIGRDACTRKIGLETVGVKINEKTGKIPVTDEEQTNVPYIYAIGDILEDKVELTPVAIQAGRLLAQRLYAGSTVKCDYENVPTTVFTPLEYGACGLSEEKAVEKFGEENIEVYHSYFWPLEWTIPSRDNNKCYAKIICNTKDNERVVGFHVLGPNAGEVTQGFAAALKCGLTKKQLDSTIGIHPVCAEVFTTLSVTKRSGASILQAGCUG
Description: (§1) ES-2 and HCT 116 (20×10^6 cells/flask) were plated in T175 flasks and treated with DMSO or 20 µM ferroptocide for 1 hr followed by treatment with 20 μM P29 for 1 hr. Cells were lysed via sonication (6500 g, 4 min) in DPBS and the soluble proteome was isolated after […] (45000 g, 45 min). Bradford assay was used to determine protein concentration. The soluble protein lysates in DPBS (pH 7.4) (500 μL, 2 mg/mL) were treated with biotin-azide (100 μM, 50× stock in DMSO), TCEP (1 mM, 50× fresh stock in water), TBTA ligand (100 μM, 17× stock in DMSO:t-butanol=1:4), and copper(II) sulfate (1 mM, 50× stock in water) followed by incubation at r.t. for 1 hr. Samples were centrifuged (6500 g, 4 min, 4° C.) and the supernatant was discarded. The pellets were resuspended in cold methanol by sonication (2×) and then were solubilized in DPBS containing 1.2% SDS via sonication and heating (90° C., 5 min). A final SDS concentration of 0.2% was achieved after addition of 5 mL of DPBS to the SDS-solubilized proteome samples. The solution was incubated overnight at 4° C. with 100 μL of streptavidin-agarose beads (ThermoFisher, washed 3× with DPBS to remove storage buffer). Samples were rotated at 22° C. for 2 hr before being washed by 5 mL 0.2% SDS/DPBS, 3×5 mL DPBS, and 3×5 mL water. The beads were pelleted by centrifugation (1400×g, 3 min) between washes.
(§2) The washed beads were suspended in 500 μL of 6 M urea/DPBS and 10 mM DTT (from 20× stock in water) and heated for 20 min on a 65° C. heat block. Upon addition of iodoacetamide (20 mM from 50× stock in water), samples were allowed to react at 37° C. for 30 min while shaking. Following reduction and alkylation, the beads were pelleted by centrifugation and resuspended in 200 μL of 2 M urea/DPBS, 1 mM CaCl2) (100× stock in water), and sequencing-grade trypsin (2 μg). The bead digestion occurred overnight at 37° C. while shaking. Next day, the beads were pelleted by centrifugation and washed with 2×50 μL water. The washes were combined with the supernatant from the trypsin digestion step, and after addition of formic acid (15 μL) to each sample, they were stored at −20° C. until mass spectrometry analysis.
(§3) LC/LC-MS/MS analysis was performed on an LTQ-Orbitrap Discovery mass spectrometer (ThermoFisher) coupled to an Agilent 1200 series HPLC. Peptide digests were pressure loaded onto a 250 m fused silica desalting column packed with 4 cm of Aqua C18 reverse phase resin (Phenomenex). The peptides were eluted onto a biphasic column (100 m fused silica with a 5, tip, packed with 10 cm C18 and 4 cm Partisphere strong cation exchange resin (SCX, Whatman) using a gradient 5-100% Buffer B in Buffer A (Buffer A: 95% water, 5% acetonitrile, 0.1% formic acid; Buffer B: 20% water, 80% acetonitrile, 0.1% formic acid). The peptides were then eluted from the SCX onto the C18 resin and into the mass spectrometer using 4 salt steps previously described (Nat. Protoc. 2, 1414-1425, (2007)). The flow rate through the column was set to ˜0.25 μL/min and the spray voltage was set to 2.75 kV. One full MS scan (FTMS) (400-1800 MW) was followed by 8 data dependent scans (ITMS) of the n^th most intense ions. The tandem MS data were searched using the SEQUEST algorithm using a concatenated target/decoy variant of the human UniProt database. A static modification of +57.02146 on cysteine was specified to account for alkylation by iodoacetamide. MS2 spectra matches were assembled into protein identifications and filtered using DTASelect2.0 to generate a list of protein hits with a peptide false-discovery rate of 5%. The mass spectrometry proteomics data have been deposited to the ProteomeXchange Consortium via the PRIDE [1] partner repository with the dataset identifier PXD012805.

[3] = target: T2, PDP1 (Homo sapiens, UniProt Q9P0J1); test: as above; assay type: binding; conditions: DMSO/ferroptocide spectral count ratio of P29-labeled enriched proteins
T2 construct: endogenous in cells; host or cells: HCT 116 (and ES-2) cells
T2 sequence (Q9P0J1 72-537): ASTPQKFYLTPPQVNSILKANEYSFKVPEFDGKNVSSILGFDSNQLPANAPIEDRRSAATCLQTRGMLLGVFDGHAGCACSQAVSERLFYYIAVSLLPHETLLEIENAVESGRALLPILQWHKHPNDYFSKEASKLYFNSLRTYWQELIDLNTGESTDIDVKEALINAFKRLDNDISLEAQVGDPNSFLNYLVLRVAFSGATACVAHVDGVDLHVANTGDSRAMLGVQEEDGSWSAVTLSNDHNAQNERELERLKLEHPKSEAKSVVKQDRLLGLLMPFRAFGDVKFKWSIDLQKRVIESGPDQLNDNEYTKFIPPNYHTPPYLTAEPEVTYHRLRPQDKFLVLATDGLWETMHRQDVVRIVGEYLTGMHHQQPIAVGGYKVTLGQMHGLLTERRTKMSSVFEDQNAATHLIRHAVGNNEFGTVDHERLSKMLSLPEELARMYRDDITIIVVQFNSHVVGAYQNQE
Description: as §1, §2, §3

[4] = target: T3, TXNRD3 (Homo sapiens, UniProt Q86VQ6); test: as above; assay type: binding; conditions: DMSO/ferroptocide spectral count ratio of P29-labeled enriched proteins
T3 construct: endogenous in cells; host or cells: HCT 116 (and ES-2) cells
T3 sequence (Q86VQ6 whole entry): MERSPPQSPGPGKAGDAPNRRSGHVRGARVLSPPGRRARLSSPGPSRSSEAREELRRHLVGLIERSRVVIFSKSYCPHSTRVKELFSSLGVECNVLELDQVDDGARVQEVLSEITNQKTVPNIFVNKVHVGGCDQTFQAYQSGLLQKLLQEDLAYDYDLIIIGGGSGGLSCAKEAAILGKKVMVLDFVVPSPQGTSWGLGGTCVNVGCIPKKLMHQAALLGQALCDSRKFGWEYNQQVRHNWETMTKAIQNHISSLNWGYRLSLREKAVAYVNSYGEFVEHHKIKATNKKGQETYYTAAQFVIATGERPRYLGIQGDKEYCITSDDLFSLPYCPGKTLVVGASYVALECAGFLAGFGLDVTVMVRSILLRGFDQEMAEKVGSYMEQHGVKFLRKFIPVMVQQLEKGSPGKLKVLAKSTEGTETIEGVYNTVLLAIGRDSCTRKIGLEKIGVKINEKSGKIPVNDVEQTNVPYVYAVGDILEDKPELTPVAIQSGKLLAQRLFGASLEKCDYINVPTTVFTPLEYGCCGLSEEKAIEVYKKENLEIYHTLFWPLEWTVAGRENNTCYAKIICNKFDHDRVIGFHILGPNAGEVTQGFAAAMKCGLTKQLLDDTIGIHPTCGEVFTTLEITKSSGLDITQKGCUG
Description: as §1, §2, §3

[5] = target: T4, PGLS (Homo sapiens, UniProt O95336); test: as above; assay type: binding; conditions: DMSO/ferroptocide spectral count ratio of P29-labeled enriched proteins
T4 construct: endogenous in cells; host or cells: HCT 116 (and ES-2) cells
T4 sequence (O95336 whole entry): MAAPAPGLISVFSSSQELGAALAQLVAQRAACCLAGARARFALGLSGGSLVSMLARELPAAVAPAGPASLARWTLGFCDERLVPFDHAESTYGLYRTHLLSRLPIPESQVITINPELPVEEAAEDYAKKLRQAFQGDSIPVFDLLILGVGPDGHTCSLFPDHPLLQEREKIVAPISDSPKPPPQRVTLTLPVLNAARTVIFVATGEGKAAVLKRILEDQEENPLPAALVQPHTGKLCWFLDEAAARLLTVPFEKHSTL
Description: as §1, §2, §3

[6] = test system: E. coli; test: Antibacterial activity (MIC); assay type: cell-based; conditions: Escherichia coli; gram-negative (E. coli)

## C[C@@H]1CC[C@@]23C[C@H](O)C(=O)[C@@]2(O)[C@]1(C)[C@H](OC(=O)CCl)C[C@@H](C1=CCn2c(=O)n(-c4ccccc4)c(=O)n2C1)[C@@H]3C [Compound P18, ferroptocide]
[1]
  IC50: 1.6 µM
[2]
  Fold Change: 4.9
[3]
  Fold Change: 3.7
[4]
  Fold Change: 7.4
[5]
  Fold Change: 2.7
[6]
  MIC: > 64 µg/mL
